Patent US20260376293A1, “METHODS FOR STUDYING GPR158 PHARMACOLOGY AND IDENTIFICATION OF ITS LIGANDS” (UNIVERSITY OF FLORIDA RESEARCH FOUNDATION, INCORPORATED, priority 2022, published 2026)

What was measured:
GPR158 [1] = target: T1, GPR158 (Homo sapiens, UniProt Q5T848); test: BRET cAMP assay in U87 glioblastoma cells expressing GPR158; format: cell-based; parameters: expressed in transfected cells; host or cells: HEK293FT; conditions: glycine 100 μM
T1 sequence (Q5T848 24-1215): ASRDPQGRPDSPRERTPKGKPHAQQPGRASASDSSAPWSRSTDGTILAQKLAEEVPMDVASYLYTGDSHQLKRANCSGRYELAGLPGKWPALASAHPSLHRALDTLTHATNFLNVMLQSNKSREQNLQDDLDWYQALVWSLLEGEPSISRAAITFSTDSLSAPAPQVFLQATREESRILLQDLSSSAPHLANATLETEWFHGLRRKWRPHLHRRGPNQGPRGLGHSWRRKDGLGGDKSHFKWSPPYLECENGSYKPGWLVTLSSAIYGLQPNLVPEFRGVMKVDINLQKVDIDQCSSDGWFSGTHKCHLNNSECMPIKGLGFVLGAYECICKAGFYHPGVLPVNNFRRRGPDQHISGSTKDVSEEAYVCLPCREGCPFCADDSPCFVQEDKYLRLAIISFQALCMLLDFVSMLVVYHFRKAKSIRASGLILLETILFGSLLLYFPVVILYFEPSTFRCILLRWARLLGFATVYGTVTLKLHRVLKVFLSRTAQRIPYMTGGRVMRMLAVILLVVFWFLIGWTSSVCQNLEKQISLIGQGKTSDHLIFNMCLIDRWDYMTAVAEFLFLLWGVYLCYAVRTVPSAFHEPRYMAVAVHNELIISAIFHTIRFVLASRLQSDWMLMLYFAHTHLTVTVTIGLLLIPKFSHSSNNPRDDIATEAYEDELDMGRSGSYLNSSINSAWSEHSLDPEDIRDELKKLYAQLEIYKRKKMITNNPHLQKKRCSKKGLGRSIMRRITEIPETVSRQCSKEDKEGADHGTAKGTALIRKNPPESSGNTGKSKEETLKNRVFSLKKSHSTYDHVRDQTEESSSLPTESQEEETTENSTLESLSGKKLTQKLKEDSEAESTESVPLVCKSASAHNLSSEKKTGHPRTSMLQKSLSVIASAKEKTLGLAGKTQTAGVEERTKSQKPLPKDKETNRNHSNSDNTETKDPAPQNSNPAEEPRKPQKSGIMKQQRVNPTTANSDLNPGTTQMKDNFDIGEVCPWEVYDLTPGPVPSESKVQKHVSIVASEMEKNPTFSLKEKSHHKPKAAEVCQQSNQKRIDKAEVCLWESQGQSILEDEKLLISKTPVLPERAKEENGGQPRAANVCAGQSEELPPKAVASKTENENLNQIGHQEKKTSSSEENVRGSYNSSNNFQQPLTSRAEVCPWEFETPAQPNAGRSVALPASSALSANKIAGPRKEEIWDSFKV
Excerpt: FIGS. 1A-1E Identification of glycine as GPR158 ligand. A) 3D model of the GPR158 cache domain with putative ligand-binding pocket is shown as surface presentation with cartoon representation at the background. B) Schematic of the screening assay design. C) Quantification of cAMP changes mediated by GPR158. BRET signal in response to amino acid application detected in control cells is subtracted from the signal from cells expressing GPR158 and the difference is plotted. Dotted lines denote 2×SD confidence interval. Data shown represent mean±s.e.m. determined from 3 independent experiments performed in triplicate. D) Time course of cAMP change induced with 10 μM of forskolin in glioblastoma cells (U87 MG) in response to glycine (100 μM) application (arrow) in empty cells (control) or cells expressing indicated components. E) Quantification of maximal amplitudes of responses to glycine in panel d. Data shown represent mean±s.e.m. determined from 3 independent experiments performed in triplicate. **p<0.01 (one-way ANOVA).
To study this effect in more detail the inventors analyzed the individual responses to glycine in a kinetic mode.
HEK293FT cells were seeded in a white flat-bottom 96 well plate (Greiner Bio-One) at 50,000 cells per well and transiently transfected using Metafectene Pro with the manufacturer instruction. […] BRET measurements were made in living cells using a microplate reader (PHERAstar FSX; BMG Labtech) equipped with two emission photomultiplier tubes. […]
HEK293FT cells or U87 MG cells (ATCC HTB-14) when indicated were co-transfected with the CAMP sensor Camyel and with untagged receptors (respectively: empty vector, GPR158). BRET ratio was determined by calculating the ratio of the light emitted by RLuc (475 nm with a 30 nm band path width) over the light emitted by the Venus (535 nm with a 30 nm band path width) in order to measure an increase of the signal when cAMP increase. ΔBRET was calculated by subtracting the ctrl cell BRET result from GPR158 expressing cells BRET result in order to get specifically the signal from GPR158 removing all the non-specific signal. […]

GPR158 [2] = target: T1, GPR158; test: BRET β-arrestin recruitment assay; format: cell-based; parameters: expressed in transfected cells; host or cells: HEK293 (HEK293FT in the BRET methods); conditions: yPET-β-arrestin-2, HEK293 cells
Excerpt: FIGS. 6A-6B. Effect of glycine on GPR158 coupling to β-arrestin. A) Schematic of the BRET based β-arrestin recruitment assay B) Dose response profile evaluating recruitment of β-arrestin using BRET-based recruitment assay that measures association of yPET-β-arrestin-2 with Rluc8-tagged receptor: GPR158 or kOR used as a positive control. Constructs were co-transfected into HEK293 cells stimulated with increasing concentration of U50488 or glycine. Data shown fold over basal of 4 independent experiments performed in triplicate mean±s.e.m.
The inventors further tested whether glycine or taurine could induce GPR158 to activate G proteins as canonical GPCRs do. In these experiments, the inventors used a reverse strategy where the inventors monitored generation of the BRET signal in the same assay (FIG. 5A).
Cells were co-transfected with Rluc-tagged receptors and YPet-β-arrestin2. Coelenterazine H were diluted at 5 μM in BRET buffer and added to cells with glycine or U50488 as indicated. BRET ratio was determined by calculating the ratio of the light emitted by the Venus (535 nm with a 30 nm band path width) over the light emitted by RLuc (475 nm with a 30 nm band path width) in order to measure an increase of the signal when β-arrestin is recruited. BRET ratio was calculated and fold over basal response was plotted as a function of kOR condition.

NCC(=O)O [glycine]
cAMP change in cells lacking GPR158 (GPR158 [1]; U87 cells without GPR158): No glycine-induced changes in cAMP | cAMP change with co-expressed RGS7/Gβ5 (GPR158 [1]; U87 cells, GPR158 + RGS7/Gβ5): further potentiated | cAMP change (GPR158 [1]; U87 glioblastoma cells expressing GPR158, forskolin 10 μM): resulted in cAMP decrease | β-arrestin recruitment to GPR158 (GPR158 [2]): no significant response
